Assay results reported in PubChem BioAssay AID248 (DTP/NCI, 2004).
“And” between values parts separate entries of the source, which are not always exact repeats. Equal entries are not always repeated. Toxic doses and inconclusive results are not listed. Cut-off read from the data, not from the text of the source: active = T/C of 150% or more; inactive = T/C below 125%.

Test system: L1210 leukemia ip in BDF1 mice, survival T/C
Assay: NCI In Vivo Anticancer Drug Screen. Data for tumor model L1210 Leukemia (intraperitoneal) in B6D2F1 (BDF1) mice
Conditions: higher = longer survival
How it was run: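 Antitumor effect is assessed in tumor-bearing animals. Survival in the compound arm is compared with a vehicle-dosed control arm and expressed as their quotient.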

[1] = endpoint: mean survival time, dose: 15.0 mg/kg/injection, schedule: Q01DX Z (ip), vehicle: carboxymethylcellulose (CMC)
[2] = endpoint: mean survival time, dose: 100.0 mg/kg/injection, schedule: Q01DX009 (ip), vehicle: Klucel (hydroxypropylcellulose) (HPC)
[3] = endpoint: mean survival time, dose: 200.0 mg/kg/injection, schedule: Q01DX009 (ip), vehicle: Klucel (hydroxypropylcellulose) (HPC)
[4] = endpoint: mean survival time, dose: 100.0 mg/kg/injection, schedule: Q01DX009 (ip), vehicle: saline with Tween-80
[5] = endpoint: mean survival time, dose: 100.0 mg/kg/injection, schedule: Q04DX003 (ip), vehicle: saline with Tween-80
[6] = endpoint: mean survival time, dose: 200.0 mg/kg/injection, schedule: Q01DX009 (ip), vehicle: saline with Tween-80
[7] = endpoint: mean survival time, dose: 200.0 mg/kg/injection, schedule: Q04DX003 (ip), vehicle: saline with Tween-80
[8] = endpoint: mean survival time, dose: 400.0 mg/kg/injection, schedule: Q01DX009 (ip), vehicle: saline with Tween-80
[9] = endpoint: mean survival time, dose: 400.0 mg/kg/injection, schedule: Q04DX003 (ip), vehicle: saline with Tween-80
[10] = endpoint: mean survival time, dose: 100.0 mg/kg/injection, schedule: Q04DX003 (ip), vehicle: carboxymethylcellulose (CMC)
[11] = endpoint: mean survival time, dose: 200.0 mg/kg/injection, schedule: Q04DX003 (ip), vehicle: carboxymethylcellulose (CMC)
[12] = endpoint: mean survival time, dose: 400.0 mg/kg/injection, schedule: Q04DX003 (ip), vehicle: carboxymethylcellulose (CMC)

Measured: T/C

O=C(Nc1cccc(C2=NCCN2)c1)c1cccc2c(C(=O)Nc3cccc(C4=NCCN4)c3)cccc12
inactive: [1] 86 % of control

O=S(=O)(/N=C1C=C/C(=N/S(=O)(=O)c2ccccc2)C2C3C=CC(C3)C/12)c1ccccc1 (stereo unspecified)
inactive: [2] 109 % of control | endpoint: mean survival time, dose: 100.0 mg/kg/injection, schedule: Q04DX003 (ip), vehicle: Klucel (hydroxypropylcellulose) (HPC) 94 % of control | [3] 103 % of control | endpoint: mean survival time, dose: 200.0 mg/kg/injection, schedule: Q04DX003 (ip), vehicle: Klucel (hydroxypropylcellulose) (HPC) 97 % of control | endpoint: mean survival time, dose: 400.0 mg/kg/injection, schedule: Q01DX009 (ip), vehicle: Klucel (hydroxypropylcellulose) (HPC) 95 % of control | endpoint: mean survival time, dose: 400.0 mg/kg/injection, schedule: Q04DX003 (ip), vehicle: Klucel (hydroxypropylcellulose) (HPC) 92 % of control

O=[N+]([O-])c1ccc(OCCNS(=O)(=O)c2cccc(S(=O)(=O)F)c2)c(Cl)c1
inactive: [4] 104 % of control | [5] 97 % of control | [6] 88 % of control | [7] 95 % of control | [8] 90 % of control | [9] 101 % of control

N=C(N)SCc1c(-c2ccccc2)oc(-c2ccccc2)c1CSC(=N)N
inactive: endpoint: mean survival time, dose: 6.25 mg/kg/injection, schedule: Q01DX009 (ip), vehicle: saline with Tween-80 103 % of control | endpoint: mean survival time, dose: 12.5 mg/kg/injection, schedule: Q01DX009 (ip), vehicle: saline with Tween-80 101 % of control | endpoint: mean survival time, dose: 12.5 mg/kg/injection, schedule: Q04DX003 (ip), vehicle: saline with Tween-80 97 % of control | endpoint: mean survival time, dose: 25.0 mg/kg/injection, schedule: Q04DX003 (ip), vehicle: saline with Tween-80 101 % of control

COc1ccc(-n2c(=O)c(N=Nc3ccccc3C)c(O)n(-c3ccccc3OC)c2=S)cc1
inactive: endpoint: mean survival time, dose: 75.0 mg/kg/injection, schedule: Q01DX001 (ip), vehicle: Klucel (hydroxypropylcellulose) (HPC) 97 % of control | endpoint: mean survival time, dose: 150.0 mg/kg/injection, schedule: Q01DX001 (ip), vehicle: Klucel (hydroxypropylcellulose) (HPC) 92 % of control

CN(/N=C/c1ccccc1)C(=N)N
inactive: endpoint: mean survival time, dose: 5.0 mg/kg/injection, schedule: Q01DX009 (ip), vehicle: saline 106 % of control | endpoint: mean survival time, dose: 10.0 mg/kg/injection, schedule: Q01DX001 (ip), vehicle: saline 98 % of control | endpoint: mean survival time, dose: 10.0 mg/kg/injection, schedule: Q01DX009 (ip), vehicle: saline 93 % of control | endpoint: mean survival time, dose: 10.0 mg/kg/injection, schedule: Q04DX003 (ip), vehicle: saline 101 % of control | endpoint: mean survival time, dose: 20.0 mg/kg/injection, schedule: Q01DX001 (ip), vehicle: saline 101 % of control | endpoint: mean survival time, dose: 20.0 mg/kg/injection, schedule: Q01DX009 (ip), vehicle: saline 104 % of control | endpoint: mean survival time, dose: 20.0 mg/kg/injection, schedule: Q04DX003 (ip), vehicle: saline 97 % of control | endpoint: mean survival time, dose: 40.0 mg/kg/injection, schedule: Q01DX001 (ip), vehicle: saline 93 % of control | endpoint: mean survival time, dose: 40.0 mg/kg/injection, schedule: Q04DX003 (ip), vehicle: saline 103 % of control | endpoint: mean survival time, dose: 62.5 mg/kg/injection, schedule: Q04DX003 (ip), vehicle: saline 117 % of control | endpoint: mean survival time, dose: 75.0 mg/kg/injection, schedule: Q01DX001 (ip), vehicle: saline 100 % of control

C=CC(C)=O.C=CC(C)=O.C=CC(C)=O.[W]
inactive: endpoint: mean survival time, dose: 100.0 mg/kg/injection, schedule: Q04DX003 (ip), vehicle: other 94 % of control | endpoint: mean survival time, dose: 200.0 mg/kg/injection, schedule: Q04DX003 (ip), vehicle: other 92 % of control | endpoint: mean survival time, dose: 400.0 mg/kg/injection, schedule: Q04DX003 (ip), vehicle: other 97 % of control

CCCCCCCCCC(=O)N(C(C)C)C(C)C
inactive: endpoint: mean survival time, dose: 100.0 mg/kg/injection, schedule: Q01DX001 (ip), vehicle: carboxymethylcellulose (CMC) 100 % of control | endpoint: mean survival time, dose: 100.0 mg/kg/injection, schedule: Q01DX009 (ip), vehicle: carboxymethylcellulose (CMC) 96 % of control and 106 % of control | [10] 93 % of control | endpoint: mean survival time, dose: 200.0 mg/kg/injection, schedule: Q01DX001 (ip), vehicle: carboxymethylcellulose (CMC) 94 % of control | endpoint: mean survival time, dose: 200.0 mg/kg/injection, schedule: Q01DX009 (ip), vehicle: carboxymethylcellulose (CMC) 94 % of control and 100 % of control | [11] 95 % of control | endpoint: mean survival time, dose: 400.0 mg/kg/injection, schedule: Q01DX001 (ip), vehicle: carboxymethylcellulose (CMC) 96 % of control | endpoint: mean survival time, dose: 400.0 mg/kg/injection, schedule: Q01DX009 (ip), vehicle: carboxymethylcellulose (CMC) 95 % of control | [12] 92 % of control

[B-][NH2+]c1ccc([NH2+][B-])cc1
inactive: endpoint: mean survival time, dose: 100.0 mg/kg/injection, schedule: Q01DX001 (ip), vehicle: saline 96 % of control | endpoint: mean survival time, dose: 200.0 mg/kg/injection, schedule: Q01DX001 (ip), vehicle: saline 91 % of control | endpoint: mean survival time, dose: 400.0 mg/kg/injection, schedule: Q01DX001 (ip), vehicle: saline 100 % of control

S=c1n(Cc2ccccc2)cnc2ncnn12
inactive: endpoint: mean survival time, dose: 50.0 mg/kg/injection, schedule: Q01DX009 (ip), vehicle: Klucel (hydroxypropylcellulose) (HPC) 93 % of control | [2] 97 % of control | [3] 95 % of control

O=[N+]([O-])c1ccc(/C=C/c2nnc(/C=C/c3ccc([N+](=O)[O-])cc3)o2)cc1
inactive: endpoint: mean survival time, dose: 50.0 mg/kg/injection, schedule: Q04DX002 (ip), vehicle: saline with Tween-80 100 % of control | endpoint: mean survival time, dose: 100.0 mg/kg/injection, schedule: Q04DX002 (ip), vehicle: saline with Tween-80 89 % of control | endpoint: mean survival time, dose: 200.0 mg/kg/injection, schedule: Q04DX002 (ip), vehicle: saline with Tween-80 92 % of control | endpoint: mean survival time, dose: 400.0 mg/kg/injection, schedule: Q04DX002 (ip), vehicle: saline with Tween-80 100 % of control

CCCCC(=O)NC(O)C(Cl)(Cl)C(C)Cl (stereo unspecified)
inactive: endpoint: mean survival time, dose: 50.0 mg/kg/injection, schedule: Q01DX001 (ip), vehicle: other 112 % of control | endpoint: mean survival time, dose: 100.0 mg/kg/injection, schedule: Q01DX001 (ip), vehicle: other 91 % of control | endpoint: mean survival time, dose: 200.0 mg/kg/injection, schedule: Q01DX001 (ip), vehicle: other 101 % of control | endpoint: mean survival time, dose: 400.0 mg/kg/injection, schedule: Q01DX001 (ip), vehicle: other 101 % of control

COc1cc(OC)c(/C=C/c2c3ccccc3cc[n+]2C)c(OC)c1
inactive: endpoint: mean survival time, dose: 0.78 mg/kg/injection, schedule: Q01DX009 (ip), vehicle: saline with Tween-80 100 % of control | endpoint: mean survival time, dose: 1.56 mg/kg/injection, schedule: Q01DX009 (ip), vehicle: saline with Tween-80 97 % of control

O=C(Nc1ccc(C2=NCCO2)cc1)c1ccc(C(=O)Nc2ccc(C3=NCCO3)cc2)cc1
inactive: [1] 105 % of control | endpoint: mean survival time, dose: 30.0 mg/kg/injection, schedule: Q01DX Z (ip), vehicle: carboxymethylcellulose (CMC) 96 % of control | endpoint: mean survival time, dose: 60.0 mg/kg/injection, schedule: Q01DX Z (ip), vehicle: carboxymethylcellulose (CMC) 91 % of control | endpoint: mean survival time, dose: 120.0 mg/kg/injection, schedule: Q01DX Z (ip), vehicle: carboxymethylcellulose (CMC) 96 % of control

COc1cc(/C=N/OCc2cc3c(cc2Cl)OCO3)cc(OC)c1OC
inactive: [5] 99 % of control | [7] 94 % of control | [9] 96 % of control

O=C1/C(=C/c2ccccn2)CCc2cc(Cl)ccc21
inactive: [10] 93 % of control | [11] 96 % of control | [12] 96 % of control

CC1=C(/C=C/C(C)=C/C=C/C(C)=C/C(=O)O)C(C)(C)CCC1
inactive: endpoint: mean survival time, dose: 88.0 mg/kg/injection, schedule: Q01DX009 (ip), vehicle: steriod suspending solution 89 % of control | [4] 100 % of control | endpoint: mean survival time, dose: 200.0 mg/kg/injection, schedule: Q01DX001 (sc), vehicle: steriod suspending solution 104 % of control | [6] 94 % of control | endpoint: mean survival time, dose: 400.0 mg/kg/injection, schedule: Q01DX001 (sc), vehicle: steriod suspending solution 98 % of control | [8] 91 % of control | endpoint: median survival time, dose: 25.0 mg/kg/injection, schedule: Q01DX009 (ip), vehicle: other 111 % of control | endpoint: median survival time, dose: 50.0 mg/kg/injection, schedule: Q01DX009 (ip), vehicle: other 100 % of control | endpoint: median survival time, dose: 100.0 mg/kg/injection, schedule: Q01DX009 (ip), vehicle: other 100 % of control | endpoint: median survival time, dose: 200.0 mg/kg/injection, schedule: Q01DX009 (ip), vehicle: other 100 % of control

COc1ccccc1-n1c(O)c(N=Nc2ccc(Br)cc2)c(=O)n(-c2ccc(I)cc2)c1=S
inactive: endpoint: mean survival time, dose: 50.0 mg/kg/injection, schedule: Q01DX001 (ip), vehicle: Klucel (hydroxypropylcellulose) (HPC) 102 % of control | endpoint: mean survival time, dose: 100.0 mg/kg/injection, schedule: Q01DX001 (ip), vehicle: Klucel (hydroxypropylcellulose) (HPC) 112 % of control | endpoint: mean survival time, dose: 200.0 mg/kg/injection, schedule: Q01DX001 (ip), vehicle: Klucel (hydroxypropylcellulose) (HPC) 102 % of control
